Where “and” joins values, the source holds several entries; their conditions need not be identical. Equal values may be shown once. Entries after “also recorded” stand apart in the source; their conditions may differ. Read-outs that look alike come from different tables or passages of the source.
Experiments:
HIV-1 integrase [1] = molecular target: T1, HIV-1 integrase (Human immunodeficiency virus type 1 group M subtype B (isolate HXB2) (HIV-1), UniProt P04585); assay: biochemical; format: biochemical
Method: The effect of each compound on HIV integrase activity was assayed using the “HIV-1 Integrase Assay Kit” version 2.0, catalogue number EZ-1700 obtained from XpressBio Life Science Products. Immediately prior to the start of the assay, both compounds were dissolved in dimethyl sulfoxide (DMSO) and used immediately in the HIV integration assay. The assay was performed according to the instructions listed by the manufacturer (XpressBio Life Science Products, Maryland, USA). In brief, the required streptavidin-coated strip wells were coated with DS oligo and placed overnight at 4° C. The plates were then incubated with integrase and followed by the addition of test articles at the desired concentration. The plates were developed using the supplied HRP antibody and TMB peroxidase substrate as per the manufacturer's instructions. The reactions were stopped with TMB stop solution and immediately read (<10 min) using a VICTOR XXX. The absorbance of each well was read at 450 nm for 0.5 sec. All measurements were performed in triplicate.
The background absorbance was subtracted from the raw data of each sample to yield “background corrected” absorbance values. […] The CV=% SD for the 100% integrase alone control.
To determine the IC50 of each test compound, non-linear regression analysis was used.
Because the top and the bottom plateaus can be defined by solid control data (eg. sodium azide), the data was fitted to a normalized model in order to calculate the IC50. […] Since 6 compound concentrations were tested in triplicate, the data was analyzed using the standard slope model, in contrast with the variable slope model.

HIV-1 integrase [2] = molecular target: T1, HIV-1 integrase; assay: biochemical; format: biochemical; remark: listed apart in the source
Method: The capacity of the compound to inhibit HIV integrase in a cell-free system was assessed. An HIV Integrase Assay System (XpressBio Life Science Products; Thurmont, Md., www.expressbio.com) was used. In brief, double-stranded HIV-1 donor substrate (the U5 long terminal repeat) was immobilized in 96-well plates. Recombinant HIV-1 integrase protein was added, along with an oligonucleotide target substrate. The integrase cleaves the donor substrate and integrates it into the target substrate, which is now in solution phase—the integrated product (the amount is indicative of integrase activity) was detected using an antibody specific for the recombinant target/donor sequence. Inhibitors added along with the donor substrate reduced the amount of product. […] The capacity of a compound known to inhibit HIV integrase activity (NaN3) was assessed as a positive control. All assessed inhibitions were compared to controls treated with vehicle only (compounds dissolved in 100% DMSO, then diluted in buffer to a maximum DMSO concentration of 0.1% DMSO).
However, it should be kept in mind that indirect HIV integrase inhibition (which might possibly occur in living cells) will not be detected.
COTI-HIV1Doxo was assayed for HIV-1 integrase activity, as described above. All measurements were made in quadruplicate (n=4) to allow statistical analysis of significance.

[3] = all concentrations tested (lowest 1 nM)

Structure (SMILES): Cn1cnc(-c2nnc(Cc3ccc(F)cc3)o2)c(O)/c1=N\O [COTI-HIV1DOxime, 6-[5-(4-fluoro-benzyl)-[1,3,4]oxadiazol-2-yl]-5-hydroxy-3-methyl-3H-pyrimidin-4-one oxime]
- IC50 (HIV-1 integrase [1]): 58.7 µM
- inhibition of HIV-1 integrase (HIV-1 integrase [1]; [3]): significantly inhibited HIV-1 integrase; also recorded: significantly inhibit HIV-1 integrase activity

Structure (SMILES): Cn1cnc(-c2nnc(Cc3ccc(F)cc3)o2)c(O)c1=O [COTI-HIV1Doxo, 6-[5-(4-Fluoro-benzyl)-[1,3,4]oxadiazol-2-yl]-5-hydroxy-3-methyl-3H pyrimidin-4-one]
- IC50 (HIV-1 integrase [2]): ~10 µM
- effect on HIV-1 integrase activity (HIV-1 integrase [2]; 1 nM, listed as COTI-HIV-1 ketone derivative): enhanced HIV-1 integrase activity; also recorded: slightly but significantly enhanced HIV-1 integrase activity
- effect on HIV-1 integrase activity (HIV-1 integrase [2]; 100 nM): inhibited HIV-1 integrase; also recorded: significantly reduce HIV-1 integrase activity
- effect on HIV-1 integrase activity (HIV-1 integrase [2]; all higher tested concentrations (up to 100 μM)): significantly decreased HIV-1 integrase activity
- complete inhibition of integrase activity (HIV-1 integrase [2]; up to 100 μM): not observed

Structure (SMILES): Cn1nc(-c2nnc(Cc3ccc(F)cc3)o2)/c(=N\O)c2ncccc21 [COTI-HIV1Oxime]
- IC50 (HIV-1 integrase [1]): 23.9 µM
- percent of the total control activity (HIV-1 integrase [1]; at 100 μM): 34.82%
- reduction in HIV-1 integrase activity (HIV-1 integrase [1]; at 100 μM): At least 50%
- inhibition of HIV-1 integrase (HIV-1 integrase [1]; at 100 μM, listed as COTI-HIV28233): significantly inhibited HIV-1 integrase; also recorded: significantly reduce activity
- inhibition of HIV-1 integrase activity (HIV-1 integrase [1]; at low concentrations): modestly inhibit HIV-1 integrase activity

Structure (SMILES): Cn1nc(C(=O)NCc2ccc(F)cc2)/c(=N\O)c2ncccc21 [COTI-HIV28236]
- IC50 (HIV-1 integrase [1]): 14 µM
- inhibition of HIV-1 integrase (HIV-1 integrase [1]; [3]): significantly inhibited HIV-1 integrase; also recorded: significantly inhibit HIV-1 integrase activity
- reduction in HIV-1 integrase activity (HIV-1 integrase [1]; at 100 μM): At least 50%

Structure (SMILES): [N-]=[N+]=[N-].[Na+] [sodium azide, reference compound]
- effect of positive control on HIV-1 integrase activity (HIV-1 integrase [1]; positive control): effectively decrease HIV-1 integrase activity
- calculated IC50 of sodium azide controls (HIV-1 integrase [1]; two controls run in parallel): 0.12% and 0.14%
- percent control activity (HIV-1 integrase [1]; with 10% sodium azide): 0%
- effect of positive control on HIV-1 integrase activity (HIV-1 integrase [2]; 1.0% or 3.3%): effectively decreased HIV-1 integrase activity

Source: patent US8987272B2, “Compounds and method for treatment of HIV” (priority 2010, dated 2015)
